According to patent US10344025B2, “GLS1 inhibitors for treating disease” (Board of Regents, The University of Texas System, priority 2014, dated 2019):

Legend:
[1] = target: purified recombinant human GAC (GLS1) (Homo sapiens (Human), UniProt O94925); assay: GLS1 Enzymatic Activity Assay (dual-coupled enzymatic assay, resorufin/Amplex UltraRed readout); assay type: biochemical;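 also: glutamate from GAC coupled via glutamate oxidase and peroxidase to resorufin, read as fluorescence (ex 530, em 590 nm) kinetically or at 20 min, four-parameter logistic IC50 fit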
A549 cells = assay: Proliferation Assay (A549 viability, Cell Titer Fluor, 72 hours); assay type: cell-based; settings: Homo sapiens
Summary of the method: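 A549 cells seeded at 1000 cells/well, rested 24 h, then exposed to compound in 0.5% DMSO for 72 h at 37 °C. Viability read by Cell Titer Fluor fluorescence; IC50 from four-parameter logistic fit.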

Sequence of purified recombinant human GAC (GLS1) (O94925 other isoform, or with tags, fused parts or gaps): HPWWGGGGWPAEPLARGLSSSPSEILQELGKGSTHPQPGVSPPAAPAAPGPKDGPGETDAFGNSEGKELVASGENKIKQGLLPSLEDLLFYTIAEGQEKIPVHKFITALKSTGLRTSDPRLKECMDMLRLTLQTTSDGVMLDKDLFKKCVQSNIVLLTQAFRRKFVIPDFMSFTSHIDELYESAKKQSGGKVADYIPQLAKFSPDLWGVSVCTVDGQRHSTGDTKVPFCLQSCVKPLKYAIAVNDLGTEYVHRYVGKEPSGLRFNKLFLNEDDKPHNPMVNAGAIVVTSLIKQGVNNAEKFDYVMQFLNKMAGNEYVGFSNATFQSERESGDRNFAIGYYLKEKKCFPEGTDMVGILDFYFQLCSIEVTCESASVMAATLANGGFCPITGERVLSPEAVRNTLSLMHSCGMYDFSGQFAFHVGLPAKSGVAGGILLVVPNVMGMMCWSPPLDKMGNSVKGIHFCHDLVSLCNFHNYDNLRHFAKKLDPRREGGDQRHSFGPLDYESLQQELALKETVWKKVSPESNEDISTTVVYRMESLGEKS

SMILES | IC50 [1] [nM] | EC50 (A549 cells; A549, 72 h) [nM] | EC50 (A549 cells) [nM]
CNC(=O)c1cn(CC(F)CCc2ccc(NC(=O)Cc3cc(OCC(F)(F)F)ccn3)nn2)nn1 (centres unmarked) [Example 262, 1-(2-Fluoro-4-(6-(2-(4-(2,2,2-trifluoroethoxy)pyridin-2-yl)acetamido)pyridazin-3-yl)butyl)-N-methyl-1H-1,2,3-triazole-4-carboxamide] | < 100 | – | < 100
CNC(=O)c1cn(CC(F)CCc2ccc(NC(=O)Cc3cc(C(F)(F)F)cc(C4CC4)n3)nn2)nn1 (centres unmarked) [Example 263, 1-(4-(6-(2-(6-cyclopropyl-4-(trifluoromethyl)pyridin-2-yl)acetamido)pyridazin-3-yl)-2-fluorobutyl)-N-methyl-1H-1,2,3-triazole-4-carboxamide] | < 100 | < 100 | –
CNC(=O)c1cn(C[C@H](F)CCc2ccc(NC(=O)Cc3cc(C(F)(F)C4CC4)ccn3)nn2)nn1 [Example 267, (R)-1-(4-(6-(2-(4-(cyclopropyldifluoromethyl)pyridin-2-yl)acetamido)pyridazin-3-yl)-2-fluorobutyl)-N-methyl-1H-1,2,3-triazole-4-carboxamide] | < 100 | < 100 | –
CNC(=O)c1cn(C[C@H](F)CCc2ccc(NC(=O)Cc3cc(OC4CC(OCC(F)(F)F)C4)ccn3)nn2)nn1 (stereo partly drawn) [Example 269, (R)-1-(2-fluoro-4-(6-(2-(4-(3-(2,2,2-trifluoroethoxy)cyclobutoxy)pyridin-2-yl)acetamido)pyridazin-3-yl)butyl)-N-methyl-1H-1,2,3-triazole-4-carboxamide] | < 100 | < 100 | –
CNC(=O)c1cn(C[C@H](F)CCc2ccc(NC(=O)Cc3cn(-c4cccc(OC(F)(F)F)c4)cn3)nn2)nn1 [Example 270, (R)-1-(2-fluoro-4-(6-(2-(1-(3-(trifluoromethoxy)phenyl)-1H-imidazol-4-yl)acetamido)pyridazin-3-yl)butyl)-N-methyl-1H-1,2,3-triazole-4-carboxamide] | < 100 | < 100 | –
CNC(=O)c1cn(C[C@H](F)CCc2ccc(NC(=O)Cc3ccccc3)nn2)nn1 [Example 273, (R)-1-(2-fluoro-4-(6-(2-phenylacetamido)pyridazin-3-yl)butyl)-N-methyl-1H-1,2,3-triazole-4-carboxamide] | < 100 | < 100 | –
CNC(=O)c1cn(C[C@H](F)CCc2ccc(NC(=O)Cc3cc(C4CC4)ccn3)nn2)nn1 [Example 275, (R)-1-(4-(6-(2-(4-cyclopropylpyridin-2-yl)acetamido)pyridazin-3-yl)-2-fluorobutyl)-N-methyl-1H-1,2,3-triazole-4-carboxamide] | < 100 | < 100 | –
O=C(CC1CCCC1)Nc1cn(CCCCn2cc(C(=O)NCc3ccccn3)nn2)nn1 [Example 277, 1-{4-[4-(2-cyclopentylacetamido)-1H-1,2,3-triazol-1-yl]butyl}-N-(pyridin-2-ylmethyl)-1H-1,2,3-triazole-4-carboxamide] | 100 to 500 | 500 to 5000 | –
O=C(Cc1cccc(OC(F)(F)F)c1)Nc1cn(CCCCn2cc(C(=O)NCC3CCCCC3)nn2)nn1 [Example 286, N-(cyclohexylmethyl)-1-[4-(4-{2-[3-(trifluoromethoxy)phenyl]acetamido}-1H-1,2,3-triazol-1-yl)butyl]-1H-1,2,3-triazole-4-carboxamide] | < 100 | 100 to 500 | –
O=C(CC1CCCC1)Nc1cn(CCCCn2cc(C(=O)NCC3CCCC3)nn2)nn1 [Example 288, 1-{4-[4-(2-cyclopentylacetamido)-1H-1,2,3-triazol-1-yl]butyl}-N-(cyclopentylmethyl)-1H-1,2,3-triazole-4-carboxamide] | 100 to 500 | 500 to 5000 | –
Cc1ccc(CNC(=O)c2cn(CCCCn3cc(NC(=O)CC4CC4)nn3)nn2)cn1 [Example 300, 1-{4-[4-(2-cyclopropylacetamido)-1H-1,2,3-triazol-1-yl]butyl}-N-[(6-methylpyridin-3-yl)methyl]-1H-1,2,3-triazole-4-carboxamide] | 500 to 5000 | > 5000 | –
O=C(Cc1cccc(OC(F)(F)F)c1)Nc1cn(CCCCn2cc(C(=O)NCC3CC3)nn2)nn1 [Example 301, N-(cyclopropylmethyl)-1-[4-(4-{2-[3-(trifluoromethoxy)phenyl]acetamido}-1H-1,2,3-triazol-1-yl)butyl]-1H-1,2,3-triazole-4-carboxamide] | 100 to 500 | 500 to 5000 | –

Further lines, with some results ahead:

IC50 [1] [nM] | EC50 (A549 cells; A549, 72 h) [nM] | SMILES | EC50 (A549 cells) [nM]
< 100 | < 100 | CNC(=O)c1cn(CC(F)CCc2nnc(NC(=O)Cc3cc(C4CCOCC4)ccn3)s2)nn1 (centres unmarked) [Example 265, 1-(2-fluoro-4-(5-(2-(4-(tetrahydro-2H-pyran-4-yl)pyridin-2-yl)acetamido)-1,3,4-thiadiazol-2-yl)butyl)-N-methyl-1H-1,2,3-triazole-4-carboxamide] | –
< 100 | < 100 | CNC(=O)c1cn(C[C@H](F)CCc2ccc(NC(=O)Cc3cc(OC4CCOCC4)ccn3)nn2)nn1 [Example 271, (R)-1-(2-fluoro-4-(6-(2-(4-((tetrahydro-2H-pyran-4-yl)oxy)pyridin-2-yl)acetamido)pyridazin-3-yl)butyl)-N-methyl-1H-1,2,3-triazole-4-carboxamide] | –
< 100 | < 100 | CNC(=O)c1cn(CC(F)CCc2ccc(NC(=O)Cc3cc(OC(F)F)ccn3)nn2)nn1 (centres unmarked) [Example 274, 1-(4-(6-(2-(4-(difluoromethoxy)pyridin-2-yl)acetamido)pyridazin-3-yl)-2-fluorobutyl)-N-methyl-1H-1,2,3-triazole-4-carboxamide] | –
100 to 500 | 100 to 500 | O=C(CC1CC1)Nc1cn(CCCCn2cc(C(=O)NCc3cccc(OC(F)(F)F)c3)nn2)nn1 [Example 276, 1-{4-[4-(2-cyclopropylacetamido)-1H-1,2,3-triazol-1-yl]butyl}-N-{[3-(trifluoromethoxy)phenyl]methyl}-1H-1,2,3-triazole-4-carboxamide] | –
< 100 | 100 to 500 | O=C(Cc1cccc(OC(F)(F)F)c1)Nc1cn(CCCCn2cc(C(=O)NCc3ccccn3)nn2)nn1 [Example 279, N-(pyridin-2-ylmethyl)-1-[4-(4-{2-[3-(trifluoromethoxy)phenyl]acetamido}-1H-1,2,3-triazol-1-yl)butyl]-1H-1,2,3-triazole-4-carboxamide] | –
100 to 500 | 500 to 5000 | O=C(CC1CCCCC1)Nc1cn(CCCCn2cc(C(=O)NCc3ccccn3)nn2)nn1 [Example 280, 1-{4-[4-(2-cyclohexylacetamido)-1H-1,2,3-triazol-1-yl]butyl}-N-(pyridin-2-ylmethyl)-1H-1,2,3-triazole-4-carboxamide] | –
100 to 500 | 500 to 5000 | O=C(Cc1cccnc1)Nc1cn(CCCCn2cc(C(=O)NCC3CCCCC3)nn2)nn1 [Example 284, N-(cyclohexylmethyl)-1-(4-{4-[2-(pyridin-3-yl)acetamido]-1H-1,2,3-triazol-1-yl}butyl)-1H-1,2,3-triazole-4-carboxamide] | –
500 to 5000 | 500 to 5000 | O=C(Cc1ccccn1)Nc1cn(CCCCn2cc(C(=O)NCC3CCCCC3)nn2)nn1 [Example 285, N-(cyclohexylmethyl)-1-(4-{4-[2-(pyridin-2-yl)acetamido]-1H-1,2,3-triazol-1-yl}butyl)-1H-1,2,3-triazole-4-carboxamide] | –
100 to 500 | 500 to 5000 | O=C(Cc1cccc(OC(F)(F)F)c1)Nc1cn(CCCCn2cc(C(=O)NCC3CCCC3)nn2)nn1 [Example 292, N-(cyclopentylmethyl)-1-[4-(4-{2-[3-(trifluoromethoxy)phenyl]acetamido}-1H-1,2,3-triazol-1-yl)butyl]-1H-1,2,3-triazole-4-carboxamide] | –
< 100 | 100 to 500 | O=C(Cc1ccccn1)Nc1cn(CCCCn2cc(C(=O)NCc3cccc(OC(F)(F)F)c3)nn2)nn1 [Example 293, 1-(4-{4-[2-(pyridin-2-yl)acetamido]-1H-1,2,3-triazol-1-yl}butyl)-N-{[3-(trifluoromethoxy)phenyl]methyl}-1H-1,2,3-triazole-4-carboxamide] | –
< 100 | 100 to 500 | O=C(Cc1cccnc1)Nc1cn(CCCCn2cc(C(=O)NCc3cccc(OC(F)(F)F)c3)nn2)nn1 [Example 294, 1-(4-{4-[2-(pyridin-3-yl)acetamido]-1H-1,2,3-triazol-1-yl}butyl)-N-{[3-(trifluoromethoxy)phenyl]methyl}-1H-1,2,3-triazole-4-carboxamide] | –
< 100 | < 100 | O=C(CC1CCCC1)Nc1cn(CCCCn2cc(C(=O)NCc3cccc(OC(F)(F)F)c3)nn2)nn1 [Example 295, 1-{4-[4-(2-cyclopentylacetamido)-1H-1,2,3-triazol-1-yl]butyl}-N-{[3-(trifluoromethoxy)phenyl]methyl}-1H-1,2,3-triazole-4-carboxamide] | –
< 100 | < 100 | O=C(CC1CCCCC1)Nc1cn(CCCCn2cc(C(=O)NCc3cccc(OC(F)(F)F)c3)nn2)nn1 [Example 296, 1-{4-[4-(2-cyclohexylacetamido)-1H-1,2,3-triazol-1-yl]butyl}-N-{[3-(trifluoromethoxy)phenyl]methyl}-1H-1,2,3-triazole-4-carboxamide] | –
< 100 | < 100 | Cc1ccc(CNC(=O)c2cn(CCCCn3cc(NC(=O)Cc4cccc(OC(F)(F)F)c4)nn3)nn2)cn1 [Example 299, N-[(6-methylpyridin-3-yl)methyl]-1-[4-(4-{2-[3-(trifluoromethoxy)phenyl]acetamido}-1H-1,2,3-triazol-1-yl)butyl]-1H-1,2,3-triazole-4-carboxamide] | –
500 to 5000 | 500 to 5000 | O=C(CC1CCCCC1)Nc1cn(CCCCn2cc(C(=O)NCC3CC3)nn2)nn1 [Example 305, 1-{4-[4-(2-cyclohexylacetamido)-1H-1,2,3-triazol-1-yl]butyl}-N-(cyclopropylmethyl)-1H-1,2,3-triazole-4-carboxamide] | –
100 to 500 | 500 to 5000 | Cc1ccc(CC(=O)Nc2cn(CCCCn3cc(C(=O)NCc4ccccn4)nn3)nn2)cn1 [Example 306, 1-(4-{4-[2-(6-methylpyridin-3-yl)acetamido]-1H-1,2,3-triazol-1-yl}butyl)-N-(pyridin-2-ylmethyl)-1H-1,2,3-triazole-4-carboxamide] | –
